Data taken from patent US20240360179A1, “STAPLED PEPTIDES AND METHODS THEREOF” (FOG PHARMACEUTICALS, INC., priority 2021, published 2024).

Tests used:
[1] = system: AXIN2 transcripts in COLO320DM cells; assay: qPCR of AXIN2 transcripts in COLO320DM cells; format: cell-based, human
Source text: RT-qPCR. […] Relative gene expression levels were monitored using the Taqman Gene Expression probes for AXIN2 (Hs00610344 m1, ThermoFisher), SP5 (Hs01370227-mH, ThermoFisher), RNF43 (Hs00214886-m1, ThermoFisher), NOTUM (Hs00991061-m1, ThermoFisher), CXCL12 (Hs03676656-mH, ThermoFisher).

[2] = target: T1, TCF/LEF luciferase reporter in DLD1 cells (Homo sapiens, UniProt P35222); assay: TCF reporter assay in DLD1 cells (4% or 20% FBS); format: cell-based; conditions: DLD1 reporter cells; read-out: TCF reporter IC50
T1 sequence (P35222 2-781): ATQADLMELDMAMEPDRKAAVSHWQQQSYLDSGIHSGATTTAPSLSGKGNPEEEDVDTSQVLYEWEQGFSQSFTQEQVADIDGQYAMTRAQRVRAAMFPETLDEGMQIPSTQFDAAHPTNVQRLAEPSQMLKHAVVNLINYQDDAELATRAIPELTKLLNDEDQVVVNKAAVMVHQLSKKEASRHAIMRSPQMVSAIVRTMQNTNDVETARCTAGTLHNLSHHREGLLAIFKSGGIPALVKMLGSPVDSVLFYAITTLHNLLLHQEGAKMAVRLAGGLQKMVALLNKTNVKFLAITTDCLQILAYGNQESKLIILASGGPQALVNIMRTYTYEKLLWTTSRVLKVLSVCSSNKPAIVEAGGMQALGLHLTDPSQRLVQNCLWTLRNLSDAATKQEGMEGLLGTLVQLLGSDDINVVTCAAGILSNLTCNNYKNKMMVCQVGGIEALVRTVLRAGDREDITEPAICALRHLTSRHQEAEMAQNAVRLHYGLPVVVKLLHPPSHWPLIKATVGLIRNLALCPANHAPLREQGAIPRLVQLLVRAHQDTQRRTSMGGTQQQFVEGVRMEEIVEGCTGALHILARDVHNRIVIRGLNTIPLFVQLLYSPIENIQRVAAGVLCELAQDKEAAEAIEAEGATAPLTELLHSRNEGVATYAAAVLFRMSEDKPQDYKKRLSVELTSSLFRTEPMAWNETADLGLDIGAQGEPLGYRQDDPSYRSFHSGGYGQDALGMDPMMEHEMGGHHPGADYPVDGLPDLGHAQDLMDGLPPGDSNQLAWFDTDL

[3] = system: beta-catenin driven transcription in HAP1 WT cells; assay: qPCR of beta-catenin driven transcription in HAP1 WT cells (CHIR treated); format: cell-based; conditions: CHIR treated
[4] = target: T2, biotinylated B-Catenin residues 134-665 (Uniprot ID P35222) (Homo sapiens, UniProt P35222); assay: Surface plasmon resonance (Biacore) binding to beta-catenin; conditions: read-out: SPR Kd
T2 construct: biotinylated B-Catenin residues 134-665 (Uniprot ID P35222)
T2 sequence (P35222 134-665): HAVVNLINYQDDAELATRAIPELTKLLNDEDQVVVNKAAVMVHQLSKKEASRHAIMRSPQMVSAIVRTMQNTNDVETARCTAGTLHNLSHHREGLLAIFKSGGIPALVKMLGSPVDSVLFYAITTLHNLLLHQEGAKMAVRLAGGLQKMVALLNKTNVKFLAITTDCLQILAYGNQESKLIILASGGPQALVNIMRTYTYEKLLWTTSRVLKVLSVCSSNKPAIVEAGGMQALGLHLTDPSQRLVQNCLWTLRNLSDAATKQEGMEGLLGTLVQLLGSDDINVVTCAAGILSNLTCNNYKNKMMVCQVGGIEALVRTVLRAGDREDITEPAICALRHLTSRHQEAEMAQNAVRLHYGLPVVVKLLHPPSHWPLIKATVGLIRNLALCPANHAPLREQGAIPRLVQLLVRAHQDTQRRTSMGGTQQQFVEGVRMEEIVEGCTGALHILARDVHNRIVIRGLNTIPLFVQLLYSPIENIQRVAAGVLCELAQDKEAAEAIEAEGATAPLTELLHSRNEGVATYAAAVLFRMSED
Procedure: In some embodiments, binding to beta-catenin may be measured by surface plasmon resonance (SPR).
Peptides at 10 mM concentration in DMSO are diluted into Biacore™ running buffer (50 mM Tris pH 8.0, 300 mM NaCl, 2% glycerol, 0.5 mM TCEP, 0.5 mM EDTA, 0.005% Tween-20, 0.09% DMSO) to afford an appropriate dilution range. […] Results were analyzed using the Biacore™ Insight Evaluation Software, fitting to a 1:1 binding model.
SPR. In some embodiments, SPR may be utilized for characterizing or assessing interactions, bindings, etc. The following protocol is described as an example. In some embodiments, SPR experiments were performed on a Biacore™ 8K (Cytiva, Marlborough, MA) instrument at 25° C. Compounds were diluted into running buffer (50 mM Tris pH 8.0, 300 mM NaCl, 2% glycerol, 0.5 mM TCEP, 0.5 mM EDTA, 0.005% Tween-20, 1% DMSO). […] Results were analyzed using the Biacore™ Insight Evaluation software, with double referencing and fitted to a 1:1 binding affinity model.

[5] = target: T3, full-length B-Catenin (Uniprot ID P35222) (Homo sapiens, UniProt P35222); format: binding; conditions: read-out: Competition Fluorescence Polarization IC50
T3 construct: 10 nM full-length B-Catenin (Uniprot ID P35222)
T3 sequence (P35222 1-781): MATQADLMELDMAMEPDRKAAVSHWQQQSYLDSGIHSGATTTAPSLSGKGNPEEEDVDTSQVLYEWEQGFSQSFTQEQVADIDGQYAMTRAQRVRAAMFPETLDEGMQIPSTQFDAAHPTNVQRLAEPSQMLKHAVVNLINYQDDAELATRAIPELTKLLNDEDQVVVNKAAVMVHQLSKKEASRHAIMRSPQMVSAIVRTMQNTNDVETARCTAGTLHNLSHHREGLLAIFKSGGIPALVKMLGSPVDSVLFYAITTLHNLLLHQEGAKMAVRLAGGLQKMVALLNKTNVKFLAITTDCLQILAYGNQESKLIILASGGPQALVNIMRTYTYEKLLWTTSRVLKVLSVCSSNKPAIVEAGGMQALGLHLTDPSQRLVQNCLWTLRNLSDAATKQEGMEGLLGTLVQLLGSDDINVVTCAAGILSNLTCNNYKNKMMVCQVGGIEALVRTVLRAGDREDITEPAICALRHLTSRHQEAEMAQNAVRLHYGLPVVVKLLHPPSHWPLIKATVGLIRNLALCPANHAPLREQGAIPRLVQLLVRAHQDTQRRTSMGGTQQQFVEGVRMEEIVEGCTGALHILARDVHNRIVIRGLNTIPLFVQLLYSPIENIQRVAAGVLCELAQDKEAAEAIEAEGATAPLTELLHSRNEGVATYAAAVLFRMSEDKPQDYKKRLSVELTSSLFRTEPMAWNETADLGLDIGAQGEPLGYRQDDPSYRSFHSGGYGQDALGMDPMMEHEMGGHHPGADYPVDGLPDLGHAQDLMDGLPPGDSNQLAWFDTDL

[6] = target: T4, beta-catenin/TCF4 interaction (Homo sapiens, UniProt P35222); format: cell-based; conditions: read-out: NanoBRET IC50
T4 construct: host or cells: HEK293
T4 sequence (P35222 1-781): T3 sequence (P35222 1-781)

[7] = target: T5, beta-catenin/TCF4 interaction (Homo sapiens, UniProt P35222); assay: Co-immunoprecipitation of endogenous beta-catenin in DLD1 cells; format: cell-based
T5 construct: endogenous in cells; host or cells: DLD1
T5 sequence (P35222 2-781 limits assumed): T1 sequence (P35222 2-781)
Procedure: Co-Immunoprecipitation. […] In some embodiments, for co-IP experiments, DLD1 cells were treated with compounds for a period of time, e.g., 4 hours. […] Briefly, 30 μL of protein A/G magnetic beads were added to each lysate and incubated for 1 hr at room temperature.

With “Ac-PL3-Glu-Npg-B5-Glu-3COOHF-Aib-Ala-Phe-Lys*3-PyrS2-3Thi-BztA-GlnR*3-Ala-NH2 [I-470]” the “effect on AXIN2 expression level” value ([1]; COLO320DM cells) was “no or very little or non-significant effect”, the IC50 ([1]; Reduction of AXIN2 transcripts in COLO320DM cells) was over 20 µM and the IC50 [2] was over 20 µM. For the same substance, the “expression of AXIN2 and SP5 by qPCR (transcription)” value [3] was “No reduction”, the Kd [4] was over 5 µM and the IC50 [5] was 7.5 µM. For the same substance, the IC50 [6] was over 20 µM and the “beta-catenin/TCF4 interaction by co-IP and Western blotting” value [7] was “not”.
